Results taken from patent publication US20220079993A1, “NON-NATURALLY OCCURRING THERMOGENIC ADIPOCYTES, METHODS OF MAKING, AND METHODS OF USE THEREOF” (University of Georgia Research Foundation, Inc., priority 2019, published 2022).

Columns and labels:
[1] = system: DIO2; test: qRT-PCR of DIO2 transcript in beige adipocytes -/+ forskolin; assay type: cell-based, human; conditions: beige adipocytes stimulated with FSK (20 uM)
Experimental: (§1) FIG. 2A is a bar graph showing RNA expression levels by qRT-PCR for indicated genes (UCP1, DIO2) for adipose derived stem cells (ADSCs), GlucoCytes (GC), or GC with forskolin (FSK, 20 uM). FIG. 2B is a bar graph showing quantitation of immunostaining data (UCP1) from 6 independent fields of view. FIGS. 2C and 2D are bar graphs showing qRT-PCR of UCP1 of GC induced from an additional line purchased from ThermoFisher (2C) and an immortalized ADSC line purchased from ATCC (ASC52-telo) (2D). Transcript levels were determined by qRT-PCR. n=3 for each independent replicate. Data are mean+/−standard deviation. *P<0.0.05, **P<0.01, ***P<0.005. […] Cell lysates were collected at indicated days and RNA was isolated and analyzed by qRT-PCR for marker expression. […] Each line was differentiated for 21 days to beige adipocytes using B-8 medium and transcript levels of UCP1 (2Q), PPARGC1 (2R), IRF4 (2S), and ADIPOQ (2T) were measured by Taqman qRT-PCR for indicated genes +/−FSK for 6 hours (20 μM).
(§2) Cells were washed with DPBS, lysed directly on the plate and used for RNA isolation with the E.Z.N.A Total RNA Kit (Omega, R6834-02) according to manufacturer instructions. RNA quantitation was performed with the Biotek Synergy 2 plate reader and cDNA was synthesized using 1 ug of RNA with the iScript cDNA Synthesis Kit (Bio-Rad, 1708841). […]

[2] = system: UCP1; test: qRT-PCR of UCP1 transcript in beige adipocytes -/+ forskolin; assay type: cell-based, human; conditions: beige adipocytes stimulated with FSK (20 uM)
Experimental: as §1, §2

## C=C[C@@]1(C)CC(=O)[C@]2(O)[C@@]3(C)[C@@H](O)CCC(C)(C)[C@@H]3[C@H](O)[C@H](OC(C)=O)[C@@]2(C)O1 [Forskolin]
[1]
  DIO2 transcript level compared to ADSCs: 130 fold
[2]
  UCP1 transcript level compared to ADSCs: 520 fold
